One series is filed under the species Mus musculus. Description: Inhibition of RANKL-induced osteoclastogenesis in mouse RAW264 cells assessed as reduction in TRAP activity incubated for 4 days. The class given is functional, cell-based.
Series [1] in a line: Cytotoxicity against mouse RAW264 cells at 3 to 30 uM by MTT assay. The class given is cell-based. A general note: Tetrazolium dyes change colour on reduction, which living cells bring about.

Each structure is given as a SMILES string.

As to `C=CCC/C=C/C=C/C1C/C(C)=C/[C@@H](OC)C[C@H]2CC(O[C@@H]3O[C@@H](C)[C@H](O)[C@@H](OC)[C@H]3OC)C[C@](O)(O2)[C@H](C)C(=O)O1` (stereo not given in full), in the series listed under Mus musculus, the inhibition result is “Dose-dependent effect”. For the same compound, in series [1], the Activity result is recorded as “Non-Toxic”.

In the case of `C=CCC/C=C/C=C/C1C/C(C)=C/[C@@H](OC)C[C@@H]2O[C@](O)(CC(=O)O1)CC(O[C@@H]1O[C@@H](C)[C@H](O)[C@@H](OC)[C@H]1OC)[C@@H]2C` (stereo not given in full), the inhibition result in the series listed under Mus musculus is “Dose-dependent effect”. The Activity entry in series [1] was “Non-Toxic”.

For the compound `C=CCC/C=C/C=C/C1C/C(C)=C/[C@@H](OC)C[C@@H]2O[C@@](O)(CC(O[C@@H]3O[C@@H](C)[C@H](O)[C@@H](O)[C@H]3OC)[C@@H]2C)[C@H](C)C(=O)O1` (stereo not given in full), the inhibition result in the series filed under Mus musculus was “Dose-dependent effect”. For the same compound, the Activity result in series [1] is on record as “Non-Toxic”.

Regarding `C#CCCC/C=C/C=C/C1C/C(C)=C/[C@@H](OC)C[C@@H]2O[C@@](O)(CC(O[C@@H]3O[C@@H](C)[C@H](O)[C@@H](O)[C@H]3OC)[C@@H]2C)[C@H](C)C(=O)O1` (stereo not given in full), in the series filed under Mus musculus, the inhibition result was “Dose-dependent effect”. Besides, the Activity result in series [1] was “Non-Toxic”.

Turning to `C=CCC/C=C/C=C/C1C/C(C)=C/[C@@H](OC)C[C@@H]2O[C@@](O)(CC(O[C@@H]3O[C@@H](C)[C@H](O)[C@@H](OC)[C@H]3OC)[C@@H]2C)[C@H](C)C(=O)O1` (stereo not given in full), in the series listed under Mus musculus, the inhibition result is “Dose-dependent effect”. The Activity entry in series [1] is listed as “Non-Toxic”.

The values above are taken from ChEMBL document CHEMBL4616648, “Irijimasides A-E, Macrolide Glycosides from an Okeania sp. Marine Cyanobacterium” (J Nat Prod, 2020).
